Reference: patent US9505781B2, “Compositions comprising thienopyrimidine and thienopyridine compounds and methods of use thereof” (The Regents of the University of Michigan, priority 2013, dated 2016)

Key:
[1] = tested on: MLL-AF9 transformed mouse bone marrow cells (BMC); assay: MTT cell viability assay in transformed BMC; type: cell-based; conditions: 72 h incubation, E2H-HLF transformed BMC as negative control, FIG. 3
[2] = target: T1, menin-MLL-AF9 interaction (Homo sapiens, UniProt O00255); assay: Co-Immunoprecipitation (co-IP) in HEK293 cells transfected with MLL-AF9; type: cell-based; conditions: HEK293 cells transfected with MLL-AF9, FIG. 2
T1 construct: performed in HEK293 cells transfected with MLL-AF9; endogenous in cells; host or cells: HEK293 cells (transfected with MLL-AF9)
T1 sequence (O00255 1-610): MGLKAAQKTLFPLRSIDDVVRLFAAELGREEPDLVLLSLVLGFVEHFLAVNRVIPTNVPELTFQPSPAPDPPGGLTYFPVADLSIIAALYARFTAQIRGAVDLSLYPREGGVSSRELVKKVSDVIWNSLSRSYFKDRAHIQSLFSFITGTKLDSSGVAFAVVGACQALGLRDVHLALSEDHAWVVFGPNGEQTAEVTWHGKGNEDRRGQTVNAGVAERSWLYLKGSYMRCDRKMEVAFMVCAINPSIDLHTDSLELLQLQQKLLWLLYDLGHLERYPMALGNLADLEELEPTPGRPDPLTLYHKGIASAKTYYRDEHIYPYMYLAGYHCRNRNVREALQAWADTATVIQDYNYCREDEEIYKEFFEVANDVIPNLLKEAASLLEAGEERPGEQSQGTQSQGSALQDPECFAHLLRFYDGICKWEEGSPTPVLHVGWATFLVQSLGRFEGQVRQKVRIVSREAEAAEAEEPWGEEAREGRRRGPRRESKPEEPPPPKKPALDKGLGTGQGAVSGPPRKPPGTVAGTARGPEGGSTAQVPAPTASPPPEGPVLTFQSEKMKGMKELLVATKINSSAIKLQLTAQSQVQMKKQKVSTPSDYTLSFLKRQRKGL

[3] = tested on: Hoxa9 and Meis 1; assay: qRT-PCR of MLL fusion downstream targets; type: cell-based; conditions: qRT-PCR in MLL-AF9 BMC, FIG. 10
From the text: FIG. 10. […] B. qRT-PCR performed in MLL-AF9 BMC for Compound 175.

[4] = target: T2, menin-MLL interaction (Homo sapiens, UniProt O00255); assay: biochemical
T2 sequence (O00255 1-610): T1 sequence (O00255 1-610)
From the text: Compounds that inhibit the interaction decrease the fluorescence anisotropy which is being used as a read-out for compound screening and for IC50 determination.

IC50 [4] [nM] | Compound | also measured
– | CC1(C)CN=C(N2CCN(c3ncnc4sc(CC(F)(F)F)cc34)CC2)S1 [Compound 1, 4-(4-(5,5-dimethyl-4,5-dihydrothiazol-2-yl)piperazin-1-yl)-6-(2,2,2-trifluoroethyl)thieno[2,3-d]pyrimidine] | inhibition of proliferation [1]: selectively inhibit proliferation of MLL leukemia cells; inhibition of the menin-MLL-AF9 interaction [2]: inhibition of the menin-MLL-AF9 interaction; expression of Hoxa9 and Meis 1 [3]: downregulate expression of downstream targets of MLL fusion proteins
< 100 | Cc1nnc(Cn2c(C#N)cc3c(C)c(CN4CCC(Nc5ncnc6sc(CC(F)(F)F)cc56)CC4)ccc32)o1 [Compound 334] | –
< 100 | N#Cc1cc2c(C(F)F)c(CN3CCC(Nc4ncnc5sc(CC(F)(F)F)cc45)CC3)ccc2[nH]1 [Compound 305] | –
500 to 2000 | O=C(CCCc1ccccc1)N1CCN(c2ncnc3sc(CC(F)(F)F)cc23)CC1 [Compound 93] | –
< 100 | N#Cc1cc2cc(CN3CCC(Nc4ncnc5sc(CC(F)(F)F)cc45)CC3)ccc2n1C[C@@H](O)CO [Compound 187] | –
500 to 2000 | NCc1ccc(CN2CCC(Nc3ncnc4sc(CC(F)(F)F)cc34)CC2)cc1 [Compound 137] | –
500 to 2000 | FC(F)(F)Cc1cc2c(N3CCN(c4nnc(CCCC5CCCCC5)s4)CC3)ncnc2s1 [Compound 17] | –
< 100 | Cc1c(CN2CCC(Nc3ncnc4sc(CC(F)(F)F)cc34)CC2)ccc2c1cc(C#N)n2CCS(C)(=O)=O [Compound 354] | –
500 to 2000 | CC(c1cc2c(N3CCN(C4=NCC(C)(C)S4)CC3)ncnc2s1)C(F)(F)F (stereo not drawn) [Compound 38] | –
500 to 2000 | FC(F)(F)Cc1cc2c(NC3CCN(Cc4ccccc4C(F)(F)F)CC3)ncnc2s1 [Compound 148] | –
100 to 500 | FC(F)(F)Cc1cc2c(NC3CCN(Cc4ccc[nH]4)CC3)ncnc2s1 [Compound 131] | –
< 100 | Cc1c(CN2CCC(Nc3ncnc4sc(CC(F)(F)F)cc34)CC2)ccc2c1cc(C#N)n2Cc1cn(C)nn1 [Compound 303] | –
100 to 500 | N#Cc1cc2ccc(CN3CCC(Nc4ncnc5sc(CC(F)(F)F)cc45)CC3)cc2[nH]1 [Compound 229] | –
< 100 | Cc1c(CN2CCC(Nc3ncnc4sc(CC(F)(F)F)cc34)CC2)ccc2c1cc(C#N)n2CCN1CCN(C(=O)CC2CCCCC2)CC1 [Compound 343] | –
100 to 500 | N#Cc1ccc(CN2CCC(CNc3ncnc4sc(CC(F)(F)F)cc34)CC2)c(Cl)c1 [Compound 256] | –
100 to 500 | NN(c1ncnc2sc(CC(F)(F)F)cc12)C1CCN(Cc2ccccc2)CC1 [Compound 123] | –
500 to 2000 | NS(=O)(=O)Cc1cccc(CC(=O)N2CCN(c3ncnc4sc(CC(F)(F)F)cc34)CC2)c1 [Compound 96] | –
500 to 2000 | FC(F)(F)Cc1cc2c(N3CCN(c4nnc(CCCc5ccccc5)s4)CC3)ncnc2s1 [Compound 41] | –
< 100 | N#Cc1cc2cc(CN3CCC(Nc4ncnc5sc(CC(F)(F)F)cc45)CC3)ccc2n1Cc1c[nH]nn1 [Compound 195] | –
100 to 500 | Cc1c(CC(F)(F)F)sc2ncnc(N3CCN(c4nnc(C(F)(F)F)s4)CC3)c12 [Compound 7] | –
< 100 | Cc1c(CN2CCC(Nc3ncnc4sc(CC(F)(F)F)cc34)CC2)ccc2c1cc(C#N)n2CCN1CCN(C(=O)CCC(F)(F)F)CC1 [Compound 342] | –
< 100 | Cc1c(CN2CCC(Nc3ncnc4sc(CC(F)(F)F)cc34)CC2)ccc2c1cc(C#N)n2Cc1ncc[nH]1 [Compound 332] | –
500 to 2000 | N#Cc1cc2cc(CN3CCC(Nc4c(COCCC5CCCC5)cnc5sc(CC(F)(F)F)cc45)CC3)ccc2[nH]1 [Compound 418] | –

IC50 [4] [nM] | Compound | also measured
< 100 | N#Cc1cc2cc(CN3CCC(Nc4ncnc5sc(CC(F)(F)F)cc45)CC3)ccc2n1Cc1cc(OCC2CC2)n[nH]1 [Compound 312] | –
500 to 2000 | CCCc1cc2c(NC3CCN(Cc4ccccc4)CC3)ccnc2s1 [Compound 282] | –
100 to 500 | CS(=O)(=O)N1CCC[C@H]1CN[C@H]1CN(Cc2ccccc2)CC[C@@H]1Nc1ncnc2sc(CC(F)(F)F)cc12 [Compound 172] | –
< 100 | Cc1c[nH]c(CCC(O)(CO)Cn2c(C#N)cc3c(C)c(CN4CCC(Nc5ncnc6sc(CC(F)(F)F)cc56)CC4)ccc32)n1 (stereo not drawn) [Compound 374] | –
500 to 2000 | CC(C)N(c1ccc(CC(=O)N2CCN(c3ncnc4sc(CC(F)(F)F)cc34)CC2)cc1)S(C)(=O)=O [Compound 103] | –
< 100 | CS(=O)(=O)OCCn1c(C#N)cc2cc(CN3CCC(Nc4ncnc5sc(CC(F)(F)F)cc45)CC3)ccc21 [Compound 395] | –
< 100 | N#Cc1ccc2c(CN3CCC(Nc4ncnc5sc(CC(F)(F)F)cc45)CC3)c[nH]c2c1 [Compound 206] | –
< 100 | N#Cc1cc2cc(CN3CCC(Nc4ncnc5sc(CC(F)(F)F)cc45)C(N)C3)ccc2n1CC1CC1 (stereo not drawn) [Compound 162] | –
< 100 | N#Cc1cc2cc(CN3CCC(Nc4ncnc5sc(CC(F)(F)F)cc45)C(N)C3)ccc2[nH]1 (stereo not drawn) [Compound 160] | –
100 to 500 | CS(=O)(=O)c1cc2cc(CN3CCC(Nc4ncnc5sc(CC(F)(F)F)cc45)CC3)ccc2[nH]1 [Compound 236] | –
< 100 | N#Cc1cc2cc(CN3CCC(Nc4ncnc5sc(CC(F)(F)F)cc45)CC3)ccc2n1CCN [Compound 186] | –
< 100 | N#Cc1cc2cc(CN3CCC(Nc4ncnc5sc(CC(F)(F)F)cc45)CC3)ccc2n1Cc1cc[nH]n1 [Compound 199] | –
500 to 2000 | N#Cc1cc2cc(CN3CCC(Nc4c(COCC5CCCC5)cnc5sc(CC(F)(F)F)cc45)CC3)ccc2[nH]1 [Compound 421] | –
500 to 2000 | O=C(CCC1CCCCC1)N1CCN(c2ncnc3sc(CC(F)(F)F)cc23)CC1 [Compound 90] | –
500 to 2000 | FC(F)(F)Cc1cc2c(N3CCN(c4nnc(C(F)(F)F)o4)CC3)ncnc2s1 [Compound 20] | –
100 to 500 | N#Cc1cc2cc(CN3CCC(Nc4ncnc5sc(CC(F)(F)F)cc45)CC3)ccc2n1Cc1cc(OCCCC2CCCC2)n[nH]1 [Compound 416] | –
500 to 2000 | CCCc1cc2c(NC3CCN(Cc4ccccc4C)CC3)ncnc2s1 [Compound 153] | –
500 to 2000 | CC1(C)CN=C(N2CCN(c3ncnc4sc(CCCc5ccccc5)cc34)CC2)S1 [Compound 37] | –
< 100 | CN(C)CCS(=O)(=O)Nc1ccc(CC(=O)N2CCN(c3ncnc4sc(CC(F)(F)F)cc34)CC2)cc1 [Compound 59] | –
< 100 | Cc1c(CN2CCC(Nc3ncnc4sc(CC(F)(F)F)cc34)CC2)ccc2c1cc(C#N)n2CCN1CCNC(C(N)=O)C1 (stereo not drawn) [Compound 363] | –
< 100 | Cc1c(CN2CCC(Nc3ncnc4sc(CC(F)(F)F)cc34)CC2)ccc2c1cc(C#N)n2CC(O)(CO)CCC1CCCCC1 (stereo not drawn) [Compound 346] | –
< 100 | COc1cc2c(cc(C#N)n2Cc2c[nH]nn2)c(C)c1CN1CCC(Nc2ncnc3sc(CC(F)(F)F)cc23)CC1 [Compound 392] | –

Compound | IC50 [4] [nM] | also measured
OCC(O)CN(c1ncnc2sc(CC(F)(F)F)cc12)C1CCN(Cc2ccccc2)CC1 (stereo not drawn) [Compound 128] | 100 to 500 | –
